Results on 14 compounds are retold here after patent publication US12178809B2, “Pyridinyl sulfonamide derivatives, pharmaceutical compositions and uses thereof” (Boehringer Ingelheim International GmbH, priority 2018, dated 2024).

Test [1] addresses human AOC3 enzyme (Homo sapiens (Human), UniProt Q16853). Kind of test: AOC3 biochemical assay (MAO-Glo). Conditions: read-out: AOC3 IC50. The text has this:
The MAO-Glo™ Assay (commercially available from PROMEGA, #V1402) provides a sensitive method for the measurement of monoamine oxidase (MAO) activity (Valley, M. P. et al., 2006, Anal. Biochem. 359: 238-246) from a variety of tissues, biofluids or recombinant expressed or purified enzymes. As substrate a derivate of the beetle luciferin ((4S)-4,5-dihydro-2-(6-hydroxybenzothiazolyl)-4-thiazole-carboxylic acid) is used, which is oxidized at a primary amine moiety. After a spontaneous elimination and a catalyzed esterase reaction, the turnover of the luciferine by the luciferase is recorded as a signal of AOC3 activity.
An aliquot of 3 μL of the compound dilution is added to a 384 well plate (Optiplate, PS, flat bottom, white, PERKIN ELMER, #6007290) with a final DMSO concentration of 6.6%. Recombinant CHO cells, overexpressing the human (1500 cells/well), mouse (1000 cells/well) or rat (500 cells/well) AOC3 enzyme are diluted in reaction buffer and added in a volume of 15 μL to the wells. After incubation for 20 minutes at 37° C., 2 μL of MAO substrate (dissolved in DMSO at 16 mM, adjusted to assay concentration in reaction buffer to a final assay concentration of 20 μM) is added and further incubated for 60 minutes at 37° C. The turnover of the substrate is determined by the addition of 20 μL of the detection-mix which was generated by the addition of reconstitution buffer with esterase (PROMEGA, #V1402) to the luciferine detection reagent (PROMEGA, #V1402). After an incubation period of 20 minutes, the luminescent signal is measured with Envision 2104 Multilabel Reader (PERKIN ELMER).

Test [2] deals with AOC1 (Homo sapiens (Human), UniProt P19801). In words: AOC1 biochemical assay (Amplex Red). As for the experimental part: The Amplex® Red Assay (available from Thermo Fisher Scientific) provides a sensitive method for the detection of H2O2 generated during enzymatic reactions like the amine oxidation catalyzed by AOC1. The assay reagent is a colorless substrate (N-acetyl-3,7-dihydroxyphenoxazine) that reacts in a 1:1 stoichiometry with hydrogen peroxide (H2O2) to produce the fluorescent dye resorufin (7-hydroxyphenoxazin-3-one, excitation/emission maxima=570/585 nm).
An aliquot of 3 μL of the compound dilution is added to a 384 well plate (Optiplate, PS, flat bottom F, black, PERKIN ELMER, #6007270) in a DMSO concentration of 6.6%.
An AOC1 enzyme aliquot (#8297-AO-010, R&D Systems) is thawed on ice, diluted in reaction buffer and added in a volume of 7 μL to the wells to give a final assay concentration of 1 ng/well. After incubation of inhibitor and enzyme for 30 minutes at 37° C., the enzymatic reaction is started with the addition of 10 μL of Amplex® Red reaction mix (final assay concentration: 100 mM sodiumphosphate, 120 μM Amplex® Red reagent (#A22177 Molecular Probes), 1.5 U/mL Horseradish Peroxidase (#P8375 Sigma-Aldrich), 200 μM putrescine (#P7505 Sigma-Alrdich), 0.05% Pluronic F-127 (#P3000MP Sigma-Aldrich), pH 7.4, 37° C.).
After an incubation for 30 minutes at 37° C. the turnover of the substrate is determined directly (or after the addition of an excess of an amine-oxidase inhibitor) with a fluorescence reader (Ex 540 nm/Em 590 nm) like Envision 2104 Multilabel Reader (PERKIN ELMER).

For test [3], the target named is AOC2 (Homo sapiens (Human), UniProt O75106). Kind of test: AOC2 biochemical assay (Amplex Red). The settings on record: for IC50: read-out: AOC2 IC50. As for the experimental part: An aliquot of 5 μL of the compound dilution is added to a 96 well plate (flat bottom F, black, GREINER bio-one, #655900) in a DMSO concentration of 2%. […] Cells are cultured for 3 days in EMEM culture medium containing 10% FCS (#04-00-1A, Biological Industries). After washing twice with ice cold PBS, cells are lysed by mechanic homogenation and cleared supernatants are shock frozen in liquid nitrogen and stored at -80° C. […] An Aliquot of 45 μL is added to the compound dilution and incubated for 30 min at 37° C. The enzymatic reaction is started with the addition of 50 μL of Amplex® Red reaction mix (final assay concentration: 100 mM sodiumphosphate, 120 μM Amplex® Red reagent (#A22177 Molecular Probes), 1.5 U/mL Horseradish Peroxidase (#P8375 Sigma-Aldrich), 2 mM phenylethylamine (#[…] Sigma-Aldrich), 0.05% Pluronic F-127 (#P3000MP Sigma-Aldrich), pH 7.4, 37° C.). The turnover per time of the substrate is determined directly with a fluorescence reader (Ex 540 nm/Em 590 nm) like Envision 2104 Multilabel Reader (PERKIN ELMER) for 60 min.

Molecules are shown by their SMILES. Counter-ions that a name gives are not always drawn. Like-named read-outs stand apart in the source and are kept apart here.

AOC1, sequence (P19801 20-751): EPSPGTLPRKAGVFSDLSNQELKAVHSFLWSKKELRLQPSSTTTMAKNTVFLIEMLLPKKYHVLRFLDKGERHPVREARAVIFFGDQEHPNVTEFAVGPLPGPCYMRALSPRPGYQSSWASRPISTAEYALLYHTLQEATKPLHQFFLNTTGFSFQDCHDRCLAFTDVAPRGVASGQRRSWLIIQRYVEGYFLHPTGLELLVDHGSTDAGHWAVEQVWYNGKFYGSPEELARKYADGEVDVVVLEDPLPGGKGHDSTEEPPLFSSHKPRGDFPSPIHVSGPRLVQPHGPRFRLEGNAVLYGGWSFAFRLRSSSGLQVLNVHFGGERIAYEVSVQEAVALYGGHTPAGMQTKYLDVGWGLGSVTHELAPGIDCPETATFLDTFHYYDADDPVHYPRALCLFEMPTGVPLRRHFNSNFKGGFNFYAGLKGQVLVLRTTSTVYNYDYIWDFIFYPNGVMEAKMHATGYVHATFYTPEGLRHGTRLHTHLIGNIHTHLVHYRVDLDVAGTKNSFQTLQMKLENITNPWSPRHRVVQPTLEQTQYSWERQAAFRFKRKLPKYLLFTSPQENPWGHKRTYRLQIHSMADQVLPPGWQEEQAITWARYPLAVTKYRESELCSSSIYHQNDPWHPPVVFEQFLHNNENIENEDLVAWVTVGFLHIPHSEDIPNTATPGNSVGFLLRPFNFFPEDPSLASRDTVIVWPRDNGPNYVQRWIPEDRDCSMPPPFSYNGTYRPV
human AOC3 enzyme, sequence (Q16853 whole entry): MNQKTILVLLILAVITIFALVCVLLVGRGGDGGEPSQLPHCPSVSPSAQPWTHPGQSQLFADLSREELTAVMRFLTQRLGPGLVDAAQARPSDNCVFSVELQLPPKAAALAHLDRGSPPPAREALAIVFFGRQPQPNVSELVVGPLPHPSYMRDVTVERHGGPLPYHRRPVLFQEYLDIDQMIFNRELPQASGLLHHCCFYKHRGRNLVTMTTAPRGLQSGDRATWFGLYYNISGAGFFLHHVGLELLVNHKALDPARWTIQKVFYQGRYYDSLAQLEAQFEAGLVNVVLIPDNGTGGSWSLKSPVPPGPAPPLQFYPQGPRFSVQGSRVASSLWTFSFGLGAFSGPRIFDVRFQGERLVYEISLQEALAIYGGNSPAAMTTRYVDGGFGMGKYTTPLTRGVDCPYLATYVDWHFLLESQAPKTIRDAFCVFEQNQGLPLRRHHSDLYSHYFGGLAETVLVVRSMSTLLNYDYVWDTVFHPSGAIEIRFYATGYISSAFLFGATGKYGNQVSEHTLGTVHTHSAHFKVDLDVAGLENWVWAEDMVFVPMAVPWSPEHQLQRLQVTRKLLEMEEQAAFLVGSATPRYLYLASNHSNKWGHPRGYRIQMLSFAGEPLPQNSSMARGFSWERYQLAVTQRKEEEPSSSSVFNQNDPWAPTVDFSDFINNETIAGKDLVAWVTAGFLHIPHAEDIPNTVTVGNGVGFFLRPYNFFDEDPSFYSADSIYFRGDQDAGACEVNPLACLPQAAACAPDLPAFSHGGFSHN
AOC2, sequence (O75106 whole entry): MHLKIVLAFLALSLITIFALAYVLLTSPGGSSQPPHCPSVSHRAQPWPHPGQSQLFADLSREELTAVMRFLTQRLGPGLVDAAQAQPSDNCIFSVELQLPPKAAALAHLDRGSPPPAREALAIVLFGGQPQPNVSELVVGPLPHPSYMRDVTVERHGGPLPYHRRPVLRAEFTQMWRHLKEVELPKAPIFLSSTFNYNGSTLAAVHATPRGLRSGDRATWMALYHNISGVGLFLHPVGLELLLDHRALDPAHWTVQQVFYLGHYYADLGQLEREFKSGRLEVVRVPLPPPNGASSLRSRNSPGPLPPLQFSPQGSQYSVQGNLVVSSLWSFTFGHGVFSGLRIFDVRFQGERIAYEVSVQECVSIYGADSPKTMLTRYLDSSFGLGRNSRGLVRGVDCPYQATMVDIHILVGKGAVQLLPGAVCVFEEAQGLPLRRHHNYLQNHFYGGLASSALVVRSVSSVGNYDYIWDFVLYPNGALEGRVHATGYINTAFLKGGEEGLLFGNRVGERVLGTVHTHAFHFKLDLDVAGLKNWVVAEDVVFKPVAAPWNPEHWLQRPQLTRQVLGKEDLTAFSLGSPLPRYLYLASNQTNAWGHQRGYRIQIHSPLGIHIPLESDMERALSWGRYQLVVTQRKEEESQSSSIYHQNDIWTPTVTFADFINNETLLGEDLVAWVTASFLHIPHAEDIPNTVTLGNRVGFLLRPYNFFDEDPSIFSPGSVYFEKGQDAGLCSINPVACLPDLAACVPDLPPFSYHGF

As usually defined, the IC50 is the concentration that inhibits the measured activity by half. Regarding `NC/C(=C\F)COc1ccc(S(=O)(=O)N2CCCC2)cn1` [Example 38], the IC50 in test [1] is 13 nM; in test [2] (read-out: AOC1 IC50), more than 50 µM; in test [3] it was 278 nM.
On the same counts, the results for `NC/C(=C\F)COc1ccc(S(=O)(=O)N2CCC(C(=O)O)CC2)cn1` [Example 56] are 89 nM, 34.7 µM and 34 nM.
As to `NC/C(=C\F)COc1ccc(S(=O)(=O)N2CCC(C(=O)NCCF)CC2)cn1` [Example 64], the IC50 was 17 nM in test [1] and more than 50 µM in test [2] (read-out: AOC1 IC50).
With `NC/C(=C\F)COc1ccc(S(=O)(=O)N2CC[C@H](O)C2)cn1` [Example 35, (S)-1-[6-((E)-2-Aminomethyl-3-fluoro-allyloxy)-pyridine-3-sulfonyl]-pyrrolidin-3-ol], the IC50 in test [1] was 38 nM; in test [2] (comparison table, unit μM, read-out: IC50 AOC1) it was more than 50 µM; in test [2] (read-out: AOC1 IC50), more than 50 µM; in test [3], 207 nM. In addition, the “fold less active against AOC2 as compared to AOC3 (ratio IC50 AOC2/IC50 AOC3)” value in test [3] is reported as “ca. 5 fold”.
On to `COC(=O)C1CCN(S(=O)(=O)c2ccc(OC/C(=C/F)CN)nc2)CC1` [Example 51, 1-[6-((E)-2-Aminomethyl-3-fluoro-allyloxy)-pyridine-3-sulfonyl]-piperidine-4-carboxylic acid methyl ester trifluoroacetate], for which the figures for the IC50 in test [1], in test [2] (read-out: AOC1 IC50) and in test [3] were 13 nM, 48 µM and 325 nM, respectively.
On the same counts, the results for `CC(C)(O)C1CN(S(=O)(=O)c2ccc(OC/C(=C/F)CN)nc2)C1` [Example 26] are 45 nM, more than 50 µM and 164 nM.
On the same counts, the results for `NC/C(=C\F)COc1ccc(S(=O)(=O)N2CC(F)(F)C2)cn1` [Example 37] are 15 nM, 22.6 µM and 451 nM.
The corresponding values for `NC/C(=C\F)COc1ccc(S(=O)(=O)N2C[C@@H]3[C@H](C2)[C@H]3C(=O)O)cn1` [Example 55, trans-3-[6-((E)-2-Aminomethyl-3-fluoro-allyloxy)-pyridine-3-sulfonyl]-3-aza-bicyclo[3.1.0]hexane-6-carboxylic acid trifluoroacetate] are 391 nM, more than 50 µM and 50 nM.
`CNC(=O)[C@@]12C[C@@H]1CN(S(=O)(=O)c1ccc(OC/C(=C/F)CN)nc1)C2` [Example 03]: the values for the IC50 in test [1], in test [2] (read-out: AOC1 IC50) and in test [3] were 25 nM, 23.6 µM and 1020 nM, respectively.
On the same counts, the results for `CC(=O)N(C)C1CCN(S(=O)(=O)c2ccc(OC/C(=C/F)CN)nc2)CC1` [Example 20] are 54 nM, more than 50 µM and 192 nM.
With `COCCN(C)C(=O)[C@H]1[C@@H]2CN(S(=O)(=O)c3ccc(OC/C(=C/F)CN)nc3)C[C@@H]21` [Example 59], the IC50 in test [1] turned out to be 18 nM; in test [2] (read-out: AOC1 IC50) it was 27.2 µM.
With `COC1CCN(S(=O)(=O)c2ccc(OC/C(=C/F)CN)nc2)CC1` [Example 46], the figures for the IC50 in test [1], in test [2] (read-out: AOC1 IC50) and in test [3] were 10 nM, more than 50 µM and 234 nM, respectively.
In the case of `CC1(C(=O)O)CCN(S(=O)(=O)c2ccc(OC/C(=C/F)CN)nc2)CC1` [Example 57], the IC50 is 2690 nM in test [1], more than 50 µM in test [2] (read-out: AOC1 IC50) and 6 nM in test [3].
The corresponding values for `CNC(=O)[C@H]1[C@@H]2CN(S(=O)(=O)c3ccc(OC/C(=C/F)CN)nc3)C[C@@H]21` [Example 01, trans-3-[6-((E)-2-Aminomethyl-3-fluoro-allyloxy)-pyridine-3-sulfonyl]-3-aza-bicyclo[3.1.0]hexane-6-carboxylic acid methylamide trifluoroacetate] are 12 nM, 43.4 µM and 162 nM.
